Assays:
Type in all cases: functional, cell-based
EVSA-T = experiment: cells; settings: Homo sapiens;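 further: growth inhibition of EVSA-T cells, read out with a cell viability assay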
Description: SANGER: Inhibition of human EVSA-T cell growth in a cell viability assay.

GDM-1 = experiment: cells; settings: Homo sapiens;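 further: cell viability readout used to measure growth inhibition of human GDM-1 cells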
Description: SANGER: Inhibition of human GDM-1 cell growth in a cell viability assay.

JIYOYE = experiment: cells; settings: Homo sapiens
Description: SANGER: Inhibition of human JiyoyeP-2003 cell growth in a cell viability assay.

K052 = experiment: cells; settings: Homo sapiens;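 further: Read-out from a cell viability assay, IC50 reflecting suppression of K052 cell growth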
Description: SANGER: Inhibition of human K052 cell growth in a cell viability assay.

L-540 = experiment: cells; settings: Homo sapiens;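 further: growth inhibition of the human L-540 cell line, read out with a viability assay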
Description: SANGER: Inhibition of human L-540 cell growth in a cell viability assay.

LOUCY = experiment: cells; settings: Homo sapiens;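 further: growth inhibition of human LOUCY cells, read out with a cell viability assay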
Description: SANGER: Inhibition of human LOUCY cell growth in a cell viability assay.

NCCIT = experiment: SANGER: Inhibition of human NCCIT cell growth in a cell viability assay.
NCI-H1522 = experiment: cells; settings: Homo sapiens;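 further: growth inhibition of NCI-H1522 cells, read out with a cell viability assay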
Description: SANGER: Inhibition of human NCI-H1522 cell growth in a cell viability assay.

NCI-H187 = experiment: cells; settings: Homo sapiens;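 further: growth inhibition of NCI-H187 cells, read out as cell viability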
Description: SANGER: Inhibition of human NCI-H187 cell growth in a cell viability assay.

NCI-H2227 = experiment: cells; settings: Homo sapiens;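 further: growth inhibition of the human cell line, read out with a cell viability assay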
Description: SANGER: Inhibition of human NCI-H2227 cell growth in a cell viability assay.

NCI-H524 = experiment: cells; settings: Homo sapiens;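 further: growth inhibition of human NCI-H524 cells, read out through a cell viability assay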
Description: SANGER: Inhibition of human NCI-H524 cell growth in a cell viability assay.

SNU-16 = experiment: cells; settings: Homo sapiens;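 further: growth inhibition of human SNU-16 cells, determined with a cell viability readout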
Description: SANGER: Inhibition of human NCI-SNU-16 cell growth in a cell viability assay.

SCC-3 = experiment: cells; settings: Homo sapiens;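 further: cell viability assay measuring inhibition of SCC-3 cell growth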
Description: SANGER: Inhibition of human SCC-3 cell growth in a cell viability assay.

SNU-C1 = experiment: cells; settings: Homo sapiens;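 further: growth inhibition of SNU-C1 human cells, read out by a cell viability assay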
Description: SANGER: Inhibition of human SNU-C1 cell growth in a cell viability assay.

ST486 = experiment: SANGER: Inhibition of human ST486 cell growth in a cell viability assay.
SUP-T1 = experiment: cells; settings: Homo sapiens;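 further: growth inhibition of human SUP-T1 cells, read out as cell viability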
Description: SANGER: Inhibition of human SUP-T1 cell growth in a cell viability assay.

BC1 cell line = experiment: SANGER: Inhibition of human BC-1 cell growth in a cell viability assay.
BC-3 = experiment: cells; settings: Homo sapiens;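 further: cell viability assay measuring growth inhibition of human BC-3 cells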
Description: SANGER: Inhibition of human BC-3 cell growth in a cell viability assay.

D-566MG = experiment: cells; settings: Homo sapiens
DBTRG-05MG = experiment: cells; settings: Homo sapiens;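 further: cell viability assay measuring growth inhibition of human DBTRG-05MG cells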
Description: SANGER: Inhibition of human DBTRG-05MG cell growth in a cell viability assay.

Daoy = experiment: cells; settings: Homo sapiens;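 further: daoy cell growth inhibition, read out as cell viability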
Description: SANGER: Inhibition of human Daoy cell growth in a cell viability assay.

GCT = experiment: cells; settings: Homo sapiens;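 further: GCT cell line proliferation inhibition, read out with a cell viability assay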
Description: SANGER: Inhibition of human GCT cell growth in a cell viability assay.

HCC1419 = experiment: cells; settings: Homo sapiens;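 further: growth inhibition of human HCC1419 cells, read out as cell viability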
Description: SANGER: Inhibition of human HCC1419 cell growth in a cell viability assay.

HCC1569 = experiment: cells; settings: Homo sapiens;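 further: growth inhibition of human HCC1569 cells, read out with a cell viability assay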
Description: SANGER: Inhibition of human HCC1569 cell growth in a cell viability assay.

HGC-27 = experiment: cells; settings: Homo sapiens;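 further: growth inhibition of human HGC-27 cells, read out in a cell viability assay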
Description: SANGER: Inhibition of human HGC-27 cell growth in a cell viability assay.

HOP-92 = experiment: cells; settings: Homo sapiens;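 further: cell viability readout, with IC50 reflecting inhibition of HOP-92 cell growth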
Description: SANGER: Inhibition of human HOP-92 cell growth in a cell viability assay.

HSC-3 = experiment: cells; settings: Homo sapiens
Description: SANGER: Inhibition of human HSC-3 cell growth in a cell viability assay.

HT-3 = experiment: cells; settings: Homo sapiens;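 further: growth inhibition measured with a cell viability readout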
Description: SANGER: Inhibition of human HT-3 cell growth in a cell viability assay.

HT55 = experiment: cells; settings: Homo sapiens;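 further: cell viability readout measuring growth inhibition of human HT55 cells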
Description: SANGER: Inhibition of human HT55 cell growth in a cell viability assay.

KU-19-19 = experiment: cells; settings: Homo sapiens
Description: SANGER: Inhibition of human KU-19-19 cell growth in a cell viability assay.

KYSE-410 = experiment: cells; settings: Homo sapiens;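 further: growth inhibition of KYSE-410 cells, measured through a cell viability readout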
Description: SANGER: Inhibition of human KYSE-410 cell growth in a cell viability assay.

KYSE-510 = experiment: cells; settings: Homo sapiens;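 further: cell viability readout used to measure how strongly growth of the cell line is suppressed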
Description: SANGER: Inhibition of human KYSE-510 cell growth in a cell viability assay.

KYSE-520 cell line = experiment: cells; settings: Homo sapiens;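 further: growth inhibition of human KYSE-520 cells, read out with a viability assay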
Description: SANGER: Inhibition of human KYSE-520 cell growth in a cell viability assay.

MC-IXC = experiment: cells; settings: Homo sapiens;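 further: growth inhibition of MC-IXC cells, read out with a cell viability assay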
Description: SANGER: Inhibition of human MC-IXC cell growth in a cell viability assay.

MG-63 = experiment: cells; settings: Homo sapiens;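 further: growth inhibition of human MG-63 cells, read out with a cell viability assay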
Description: SANGER: Inhibition of human MG-63 cell growth in a cell viability assay.

MKN-1 = experiment: cells; settings: Homo sapiens;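 further: growth inhibition of human MKN1 cells, read out by a cell viability measurement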
Description: SANGER: Inhibition of human MKN1 cell growth in a cell viability assay.

NBsusSR = experiment: cells; settings: Homo sapiens;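 further: growth inhibition of the human cell line, read out with a cell viability assay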
Description: SANGER: Inhibition of human NBsusSR cell growth in a cell viability assay.

NCI-H1993 = experiment: cells; settings: Homo sapiens;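 further: growth inhibition of the cancer cell line, assessed with a cell viability assay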
Description: SANGER: Inhibition of human NCI-H1993 cell growth in a cell viability assay.

NCI-H2009 = experiment: cells; settings: Homo sapiens;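 further: cell viability assay measuring inhibition of NCI-H2009 cell growth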
Description: SANGER: Inhibition of human NCI-H2009 cell growth in a cell viability assay.

NCI-H292 = experiment: cells; settings: Homo sapiens;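 further: growth inhibition of NCI-H292 cells, read out with a cell viability assay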
Description: SANGER: Inhibition of human NCI-H292 cell growth in a cell viability assay.

NCI-H520 = experiment: cells; settings: Homo sapiens;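 further: growth inhibition of NCI-H520 cells, measured by a cell viability assay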
Description: SANGER: Inhibition of human NCI-H520 cell growth in a cell viability assay.

OE33 = experiment: cells; settings: Homo sapiens;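 further: growth inhibition of human OE33 cells, measured by a cell viability assay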
Description: SANGER: Inhibition of human OE33 cell growth in a cell viability assay.

SCC-4 = experiment: cells; settings: Homo sapiens;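 further: growth inhibition of human SCC-4 cells, read out as cell viability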
Description: SANGER: Inhibition of human SCC-4 cell growth in a cell viability assay.

SF-295 = experiment: cells; settings: Homo sapiens;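 further: growth inhibition of SF-295 cells, read out with a cell viability assay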
Description: SANGER: Inhibition of human SF295 cell growth in a cell viability assay.

SJRH30 = experiment: cells; settings: Homo sapiens;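 further: growth inhibition of human SJRH30 cells, read out with a cell viability assay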
Description: SANGER: Inhibition of human SJRH30 cell growth in a cell viability assay.

SNU-387 = experiment: cells; settings: Homo sapiens
Description: SANGER: Inhibition of human SNU-387 cell growth in a cell viability assay.

SW1417 = experiment: cells; settings: Homo sapiens;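 further: growth inhibition of human SW1417 cells, read out with a cell viability assay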
Description: SANGER: Inhibition of human SW1417 cell growth in a cell viability assay.

SW48 = experiment: cells; settings: Homo sapiens;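 further: growth inhibition of SW48 cells, read out with a cell viability assay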
Description: SANGER: Inhibition of human SW48 cell growth in a cell viability assay.

SW780 = experiment: cells; settings: Homo sapiens;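 further: growth inhibition of the cells, read out with a cell viability assay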
Description: SANGER: Inhibition of human SW780 cell growth in a cell viability assay.

SAOS-2 = experiment: cells; settings: Homo sapiens;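 further: growth inhibition of human Saos-2 cells determined by a cell viability assay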
Description: SANGER: Inhibition of human Saos-2 cell growth in a cell viability assay.

T-24 = experiment: cells; settings: Homo sapiens;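 further: growth inhibition of T-24 cells, read out with a cell viability assay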
Description: SANGER: Inhibition of human T-24 cell growth in a cell viability assay.

639-V = experiment: cells; settings: Homo sapiens;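 further: growth inhibition of 639-V cells, read out with a cell viability assay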
Description: SANGER: Inhibition of human 639-V cell growth in a cell viability assay.

A2780 = experiment: cells; settings: Homo sapiens;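 further: growth inhibition of A2780 cells, read out with a cell viability assay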
Description: SANGER: Inhibition of human A2780 cell growth in a cell viability assay.

A-427 = experiment: cells; settings: Homo sapiens;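 further: growth inhibition of human A-427 cells, read out by a cell viability assay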
Description: SANGER: Inhibition of human A427 cell growth in a cell viability assay.

AN3-CA = experiment: cells; settings: Homo sapiens;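 further: growth inhibition of human AN3-CA cells measured by a cell viability assay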
Description: SANGER: Inhibition of human AN3-CA cell growth in a cell viability assay.

C32 = experiment: cells; settings: Homo sapiens;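 further: cell viability assay, with IC50 reflecting inhibition of C32 cell growth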
Description: SANGER: Inhibition of human C32 cell growth in a cell viability assay.

CAL-72 = experiment: cells; settings: Homo sapiens
Description: SANGER: Inhibition of human CAL-72 cell growth in a cell viability assay.

TYK-nu = experiment: cells; settings: Homo sapiens
Description: SANGER: Inhibition of human TYK-nu cell growth in a cell viability assay.

U-118-MG = experiment: cells; settings: Homo sapiens
Description: SANGER: Inhibition of human U-118-MG cell growth in a cell viability assay.

VM-CUB-1 = experiment: cells; settings: Homo sapiens
Description: SANGER: Inhibition of human VM-CUB-1 cell growth in a cell viability assay.

YH-13 = experiment: cells; settings: Homo sapiens
Description: SANGER: Inhibition of human YH-13 cell growth in a cell viability assay.

COLO-678 = experiment: cells; settings: Homo sapiens
Description: SANGER: Inhibition of human COLO-678 cell growth in a cell viability assay.

Measured: IC50

CCn1c(-c2nonc2N)nc2cnc(Oc3cccc(NC(=O)c4ccc(OCCN5CCOCC5)cc4)c3)cc21 [GSK-269962A]
753 nM: K052
> 2500 nM: EVSA-T | GDM-1 | JIYOYE | L-540 | NCCIT | NCI-H1522 | NCI-H187 | NCI-H2227 | NCI-H524 | SNU-16 | SCC-3 | SNU-C1 | ST486 | SUP-T1 | BC1 cell line | BC-3
1150 nM: LOUCY

Cc1ccc(NC(=O)c2cccc(C(C)(C)C#N)c2)cc1Nc1ccc2ncn(C)c(=O)c2c1
3960 nM: L-540
> 4000 nM: EVSA-T | JIYOYE | LOUCY | NCCIT | NCI-H1522 | NCI-H187 | NCI-H2227 | NCI-H524 | SNU-16 | SCC-3 | SNU-C1 | BC1 cell line | BC-3
1390 nM: ST486
229 nM: GDM-1
1740 nM: SUP-T1

O=c1cc(N2CCOCC2)oc2c(-c3cccc4c3sc3ccccc34)cccc12
1740 nM: NCI-H292
1440 nM: 639-V
not listed: EVSA-T | GDM-1 | JIYOYE | K052 | L-540 | LOUCY | NCCIT | NCI-H1522 | NCI-H187 | NCI-H2227 | NCI-H524 | SNU-16 | SCC-3 | SNU-C1 | ST486 | SUP-T1 | BC1 cell line | BC-3
> 2000 nM: all other assays above

Cc1[nH]c(/C=C2\C(=O)Nc3ccc(S(=O)(=O)Cc4c(Cl)cccc4Cl)cc32)c(C)c1C(=O)N1CCC[C@@H]1CN1CCCC1 [PHA-665752]
> 2000 nM: EVSA-T | GDM-1 | JIYOYE | K052 | L-540 | LOUCY | NCCIT | NCI-H1522 | NCI-H187 | NCI-H524 | SNU-16 | SCC-3 | SNU-C1 | ST486 | SUP-T1 | BC1 cell line | BC-3

Cc1n[nH]c2ccc(-c3cncc(OC[C@@H](N)Cc4c[nH]c5ccccc45)c3)cc12 [A-443654]
346 nM: L-540
158 nM: LOUCY
701 nM: BC1 cell line
234 nM: NCCIT
220 nM: EVSA-T
188 nM: JIYOYE
464 nM: NCI-H1522 | NCI-H187
620 nM: SCC-3
342 nM: BC-3
204 nM: ST486
860 nM: NCI-H524
> 1020 nM: GDM-1 | K052 | SNU-16 | SNU-C1 | SUP-T1
